These are literature values, as cited in US20130344087A1, “COMBINATIONS OF ANTI-S1P ANTIBODIES AND SHPINGOLIPID PATHWAY INHIBITORS” (priority 2010, published 2013).

The structures appear in SMILES notation.

Data set [1] has as its system leukemic blasts isolated from patients with acute myelogenous leukemia. To be noted: blasts from AML patients.
Another data set concerns AML xenograft tumors. To be noted: in vivo.
The test system of data set [2] is normal peripheral blood mononuclear leukocytes.
Data set [3] deals with human leukemia U937 cells.
Data set [4] deals with human leukemia Jurkat cells.
Another data set has as its target T1, SPHK 2 (Homo sapiens, UniProt Q9NRA0).
T1 sequence (Q9NRA0 1-654): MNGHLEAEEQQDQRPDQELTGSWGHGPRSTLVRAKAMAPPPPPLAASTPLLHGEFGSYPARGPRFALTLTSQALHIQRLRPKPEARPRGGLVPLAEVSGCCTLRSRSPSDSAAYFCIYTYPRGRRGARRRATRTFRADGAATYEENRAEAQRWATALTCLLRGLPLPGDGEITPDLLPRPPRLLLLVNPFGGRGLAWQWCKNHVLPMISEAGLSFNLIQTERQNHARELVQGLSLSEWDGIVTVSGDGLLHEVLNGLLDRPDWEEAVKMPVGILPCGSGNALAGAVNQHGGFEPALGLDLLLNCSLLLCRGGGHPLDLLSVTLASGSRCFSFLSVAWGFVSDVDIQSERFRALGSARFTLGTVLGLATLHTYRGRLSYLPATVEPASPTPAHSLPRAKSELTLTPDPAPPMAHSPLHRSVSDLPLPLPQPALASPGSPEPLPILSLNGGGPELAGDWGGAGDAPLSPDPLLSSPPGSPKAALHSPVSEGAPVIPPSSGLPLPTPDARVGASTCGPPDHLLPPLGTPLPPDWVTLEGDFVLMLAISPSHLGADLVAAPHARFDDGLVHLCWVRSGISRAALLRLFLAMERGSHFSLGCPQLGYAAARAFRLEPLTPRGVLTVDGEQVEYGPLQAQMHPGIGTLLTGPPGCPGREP

Another data set addresses T2, ceramide synthase 2 (Homo sapiens, UniProt Q96G23).
T2 construct: endogenous in cells; host or cells: human pulmonary artery endothelial cells
T2 sequence (Q96G23 1-380): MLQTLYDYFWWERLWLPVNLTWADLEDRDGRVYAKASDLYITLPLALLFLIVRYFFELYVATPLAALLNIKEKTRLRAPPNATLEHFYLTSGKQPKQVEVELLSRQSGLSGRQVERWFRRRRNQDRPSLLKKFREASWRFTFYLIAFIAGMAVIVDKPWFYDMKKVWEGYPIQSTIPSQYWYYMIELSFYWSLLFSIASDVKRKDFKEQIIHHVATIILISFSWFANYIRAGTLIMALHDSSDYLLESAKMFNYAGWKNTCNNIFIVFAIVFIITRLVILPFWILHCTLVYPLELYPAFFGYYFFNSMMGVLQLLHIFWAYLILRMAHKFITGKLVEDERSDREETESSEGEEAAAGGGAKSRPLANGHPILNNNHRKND
To be noted: human pulmonary artery endothelial cells.

Another data set deals with PI3-kinase. As to conditions: at concentrations up to 60 μM.
The target in the next data set is ERK2 (Homo sapiens, UniProt P28482). As to conditions: at concentrations up to 60 μM.
The subject of data set [5] is human cancer cell lines (T-24, MCF-7, NCl/ADR, and MCF-7NP). As to conditions: range across cell lines, read-out: IC50, inhibition of proliferation.
The next data set addresses PKCα (Homo sapiens, UniProt P17252). As to conditions: at concentrations up to 60 μM.

Chain of ERK2 (P28482 whole entry, species assumed): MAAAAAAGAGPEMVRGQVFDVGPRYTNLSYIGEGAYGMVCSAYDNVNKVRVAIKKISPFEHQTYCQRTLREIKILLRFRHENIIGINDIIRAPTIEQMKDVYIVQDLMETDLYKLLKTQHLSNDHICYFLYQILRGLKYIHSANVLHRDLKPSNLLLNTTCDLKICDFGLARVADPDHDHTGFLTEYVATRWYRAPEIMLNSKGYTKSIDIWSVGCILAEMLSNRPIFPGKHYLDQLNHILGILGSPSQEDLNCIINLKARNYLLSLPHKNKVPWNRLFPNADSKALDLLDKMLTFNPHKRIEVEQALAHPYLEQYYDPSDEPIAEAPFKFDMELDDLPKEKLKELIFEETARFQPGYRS

Turning to `CCCCCc1ccc(/C=C/[C@H](O)[C@@H](CO)NC)cc1` [SK1-I, (2R,3S,4E)-N-methyl-5-(4′-pentylphenyl)-2-aminopent-4-ene-1,3-diol], the “induction of apoptosis in leukemic blasts” value in data set [1] is recorded as “potently induces apoptosis”. In the data set on PKC, the “inhibition of PKC” value was “does not inhibit”. Also, in the data set with AML xenograft tumors, the “growth of AML xenograft tumors” value is listed as “markedly reduces growth”. For the same compound, in data set [2], the “effect on normal peripheral blood mononuclear leukocytes” value is given as “sparing”. Moreover, the “growth and survival of U937 cells” value in data set [3] is “decrease growth and survival”. For the same compound, the “growth and survival of Jurkat cells” value in data set [4] was “decrease growth and survival”. In addition, in the data set with S1P and ceramide levels, the S1P levels entry is “decreases S1P levels” and the “levels of proapoptotic precursor ceramide” value was “increases levels”. Further, the “inhibition of SPHK 2” value at SPHK 2 was “does not inhibit”.

With `CCCCCCCCc1ccc(CCC(N)(CO)CO)cc1.Cl` [FTY720, 2-amino-2[2-(4-octylphenyl)ethyl]propane-1,3-diol hydrochloride], on ceramide synthase 2, the “cellular levels of dihydroceramides, ceramides, sphingosine, and S1P” value is listed as “decreased cellular levels”; the “inhibition of ceramide synthase 2” value is given as “inhibit ceramide synthase 2”. For the same compound, the “levels of dihydrosphingosine and dihydrosphingosine 1-phosphate (DHS1P)” value at ceramide synthase 2 (mediated by SPHK1 activity) is recorded as “increased levels”.

`CCCCCCCCCCCCCCC[C@H](O)[C@@H](N)CO` [safingol, L-threo-dihydrosphingosine]: the “cytotoxicity to leukemia cells” value with leukemia cells is on record as “cytotoxic”.

For `Oc1ccc(Nc2nc(-c3ccc(Cl)cc3)cs2)cc1` [SPHK I2, 4-[[4-(4-chlorophenyl)-2-thiazolyl]amino]-phenol], in the data set on PI3-kinase, the “inhibition of PI3-kinase” value is “no inhibition”. Besides, the “inhibition of ERK2” value at ERK2 is “no inhibition”. In addition, the IC50 in data set [5] was 900 to 4600 nM. Further, the “inhibition of PKCα” value at PKCα is given as “no inhibition”.
